Test results taken from US20060247303A1, “7H-dibenzo[b,g][1,5]dioxocin-5-one derivatives and use thereof” (BAYER HEALTHCARE AG, priority 2002, published 2006).

Target: T1, CETP (Homo sapiens, UniProt P11597)
T1 construct: enriched CETP fraction, obtained from human plasma by means of hydrophobic chromatography; from tissue; host or cells: human plasma
T1 sequence (P11597 18-493): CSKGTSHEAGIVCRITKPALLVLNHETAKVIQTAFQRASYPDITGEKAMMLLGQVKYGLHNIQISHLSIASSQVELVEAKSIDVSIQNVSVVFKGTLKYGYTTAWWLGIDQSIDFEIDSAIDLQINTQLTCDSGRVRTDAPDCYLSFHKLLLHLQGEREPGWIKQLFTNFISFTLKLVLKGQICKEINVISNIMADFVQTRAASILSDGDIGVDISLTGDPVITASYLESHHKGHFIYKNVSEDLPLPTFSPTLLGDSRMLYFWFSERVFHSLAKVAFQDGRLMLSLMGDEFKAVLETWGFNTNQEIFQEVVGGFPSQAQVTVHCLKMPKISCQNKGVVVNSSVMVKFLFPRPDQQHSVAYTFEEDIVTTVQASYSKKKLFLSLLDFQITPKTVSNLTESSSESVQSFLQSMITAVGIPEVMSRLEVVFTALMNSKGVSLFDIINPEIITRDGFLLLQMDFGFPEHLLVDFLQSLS
Test: CETP fluorescence test
Type: biochemical
Details: CETP from human plasma, transfer of fluorescent cholesterol ester between liposomes, 37° C., 4 hours; read-out: IC50 [nM] Fluor. test
Experimental: CETP is obtained in partially purified form from human plasma by differential centrifugation and column chromatography and used for the test. To this end, human plasma is adjusted to a density of 1.21 g per ml using NaBr and centrifuged at 4° C. at 50 000 rpm for 18 h. The bottom fraction (d>1.21 g/ml) is applied to a Sephadex® Phenyl-Sepharose 4B (Pharmacia) column, washed with 0.15 M NaCl/0.001 M tris HCl pH 7.4 and then eluted with distilled water. The CETP-active fractions are pooled, dialysed against 50 mM sodium acetate pH 4.5 and applied to a CM-Sepharose® column (Pharmacia). The mixture is then eluted using a linear gradient (0-1 M NaCl). The pooled CETP fractions are dialysed against 10 mM Tris HCl pH 7.4 and then further purified by chromatography on a Mono Q® column (Pharmacia).
Measurement of the CETP-catalysed transfer of a fluorescent cholesterol ester between liposomes—modified according to the procedure of Bisgaier et al., J. Lipid Res. 34, 1625 (1993):
For the production of the donor liposomes, 1 mg of cholesteryl 4,4-difluoro-5,7-dimethyl-4-bora-3a,4a-diaza-s-indacene-3-dodecanoate (cholesteryl BODIPY® FL C12, Molecular Probes) is dissolved in 600 μl of dioxane with 5.35 mg of triolein and 6.67 mg of phosphatidylcholine with gentle warming in an ultrasonic bath and this solution is added very slowly with ultrasonication to 63 ml of 50 mM tris/HCl, 150 mM NaCl, 2 mM EDTA buffer pH 7.3 at RT.
The suspension is then ultrasonicated under an N2 atmosphere for 30 minutes in the Braukson ultrasonic bath at about 50 watts, the temperature being kept at about 20° C.
The acceptor liposomes are obtained analogously from 86 mg of cholesteryl oleate, 20 mg of triolein and 100 mg of phosphatidylcholine dissolved in 1.2 ml of dioxane and 114 ml of above buffer by ultrasonication at 50 watts (20° C.) for 30 minutes.
For testing, a test mix consisting of 1 part of above buffer, 1 part of donor liposomes and 2 parts of acceptor liposomes is used.
80 μl of test mix are treated with 1-3 μg of enriched CETP fraction, obtained from human plasma by means of hydrophobic chromatography, and 2 μl of the substance to be investigated in DMSO and incubated at 37° C. for 4 hours.
The change in the fluorescence at 485/535 nm is a measure of the CE transfer; the inhibition of the transfer in comparison to the control batch without substance is determined.

SMILES | IC50 [nM]
COc1c([C@@H](O)CC(C)C)ccc2c1C(=O)OC(C)c1cc(C)cc(OCCC(C)C)c1O2 (mixture of isomers) [Example A-80, [(1S)-1-Hydroxy-3-methylbutyl]-11-(isopentyloxy)-4-methoxy-7,9-dimethyl-5H,7H-dibenzo[b,g][1,5]dioxocin-5-one] | 5000
COc1c([C@@H](O)CC(C)C)ccc2c1C(=O)OCc1c(C)c(C)c(C)c(OC(=O)C(C)(C)C)c1O2 [Example A-35] | 200
COc1c([C@@H](O)CC(C)C)ccc2c1C(=O)OCc1cc(C)cc(OS(=O)(=O)C(C)C)c1O2 [Example A-42, 9-[(1S)-1-Hydroxy-3-methylbutyl]-8-methoxy-3-methyl-7-oxo-5H,7H-dibenzo[b,g]-[1,5]-dioxocin-1-yl 2-propanesulphonate] | 700
COc1c([C@@H](O)CC(C)C)ccc2c1C(=O)OCc1c(Cl)c(C)c(Cl)c(OC(=O)C(C)(C)C)c1O2 [Example A-47] | 200
COc1c(C(O)CC(C)(C)C)ccc2c1C(=O)OCc1cc(C)cc(OCCC(C)C)c1O2 (centres unmarked) [Example A-55, 3-(1-Hydroxy-3,3-dimethylbutyl)-11-(isopentyloxy)-4-methoxy-9-methyl-5H,7H-dibenzo[b,g][1,5]dioxocin-5-one] | 1500
COc1c(C(O)CC(C)C)ccc2c1C(=O)OCc1cc(C)cc(C#CCC(C)C)c1O2 (centres unmarked) [Example A-63] | 2000
COc1c(C(O)CC(C)C)ccc2c1C(=O)OCc1c(F)c(C)cc(OCCC(C)C)c1O2 (centres unmarked) [Example A-64] | 500
COc1c(C(O)CC(C)C)ccc2c1C(=O)OCc1cc(C)cc(CCC3CCCC3)c1O2 (centres unmarked) [Example A-70, 11-(2-Cyclopentylethan-1-yl)-3-(1-hydroxy-3-methylbutyl)-4-methoxy-9-methyl-5H,7H-dibenzo[b,g][1,5]dioxocin-5-one] | 2000
COc1c([C@@H](O)CC(C)C)ccc2c1C(=O)OCc1c(C#N)c(C)cc(OCCC(C)C)c1O2 [Example A-78, 9-[(1S)-1-Hydroxy-3-methylbutyl]-1-(isopentyloxy)-8-methoxy-3-methyl-7-oxo-5H,7H-dibenzo[b,g][1,5]dioxocin-4-carbonitrile] | 3000
COc1c([C@@H](O)CC(C)C)ccc2c1C(=O)OCc1c(Br)c(C)c(Br)c(OCCCC(F)(F)F)c1O2 [Example B-1, 8,10-Dibromo-3-[(1S)-1-hydroxy-3-methylbutyl]-4-methoxy-9-methyl-11-(4,4,4-trifluorobutoxy)-5H,7H-dibenzo[b,g][1,5]dioxocin-5-one] | 1000
COc1c([C@@H](O)CC(C)C)ccc2c1C(=O)OCc1cc(C)cc(OCC3CC4C=CC3C4)c1O2 (stereo partly drawn) [Example B-5, 3-[(1S)-1-Hydroxy-3-methylbutyl]-4-methoxy-9-methyl-11-(bicyclo[2.2.1]hept-5-en-2-ylmethoxy)-5H,7H-dibenzo[b,g][1,5]dioxocin-5-one] | 1500
COc1c([C@@H](O)CC(C)C)ccc2c1C(=O)OCc1cc(C)cc(OC(=O)C3(c4cccc(F)c4)CCCCC3)c1O2 [Example B-8] | 1000
COc1c([C@@H](O)CC(C)C)ccc2c1C(=O)OCc1cc(C)cc(OC(=O)C3(C)CC3(F)F)c1O2 (some centres unmarked) [Example B-22] | 700
COc1c([C@@H](O)CC(C)C)ccc2c1C(=O)OCc1c(Cl)c(C)cc(OC(=O)C(C)(C)CF)c1O2 [Example B-42] | 300
COc1c([C@@H](O)CC(C)C)ccc2c1C(=O)OCc1c(Cl)c(C)c(Br)c(OC(=O)C3CCC3)c1O2 [Example B-50] | 250
COc1c([C@@H](O)CC(C)C)ccc2c1C(=O)OCc1c(Cl)c(C)c(Cl)c(OC(=O)N3CC4CCC(C3)O4)c1O2 [Example B-165] | 300
COc1c([C@@H](O)CC(C)C)ccc2c1C(=O)OCc1cc(C(F)F)cc(OCCC(C)C)c1O2 [Example B-176, 9-(Difluoromethyl)-3-[(1S)-1-hydroxy-3-methylbutyl]-11-(isopentyloxy)-4-methoxy-5H,7H-dibenzo[b,g][1,5]dioxocin-5-one] | 5000

The remaining lines, values ahead:

IC50 [nM] | SMILES
70 | COc1c([C@@H](O)CC(C)C)ccc2c1C(=O)OCc1c(Br)c(C)c(Cl)c(OC(=O)[C@@]3(C)C[C@H]4CC[C@@H]3C4)c1O2 [Example C-21]
75 | COc1c([C@@H](O)CC(C)C)ccc2c1C(=O)OCc1cc(C)c(Cl)c(OC(=O)[C@@]3(C)C[C@H]4CC[C@@H]3C4)c1O2 [Example C-22]
60 | COc1c([C@@H](O)CC(C)C)ccc2c1C(=O)OCc1c(Cl)c(C)c(Br)c(OC(=O)C3(C)C4CCC3CC4)c1O2 (some centres unmarked) [Example C-37]
50 | COc1c([C@@H](O)CC(C)C)ccc2c1C(=O)OCc1c(Cl)c(C)c(C)c(OC(=O)[C@@]3(C)C[C@H]4CC[C@@H]3C4)c1O2 [Example C-47]
60 | COc1c(C(O)CC(C)(C)C)ccc2c1C(=O)OCc1c(Cl)c(C)c(C3CC3)c(OC(=O)C3(C)C4CCC3CC4)c1O2 (centres unmarked) [Example C-62]
50 | CCc1c(C)c(Cl)c2c(c1OC(=O)C1(C)C3CCC1CC3)Oc1ccc([C@@H](O)CC(C)C)c(OC)c1C(=O)OC2 (some centres unmarked) [Example C-65]
50 | COCc1c(C)c(Cl)c2c(c1OC(=O)C1(C)C3CCC1CC3)Oc1ccc([C@@H](O)CC(C)C)c(OC)c1C(=O)OC2 (some centres unmarked) [Example C-66]
90 | COc1c([C@@H](O)CC(C)C)ccc2c1C(=O)OCc1c(Cl)c(C)c(Br)c(OC(=O)C3(C)CCCCC3)c1O2 [Example C-67]
60 | COc1c([C@@H](O)CC(C)C)ccc2c1C(=O)OCc1c(C)c(C)c(C)c(OC(=O)C3(C)C4CCC3CC4)c1O2 (some centres unmarked) [Example C-82]
40 | CCc1c(C)cc2c(c1OC(=O)[C@@]1(C)C[C@H]3CC[C@@H]1C3)Oc1ccc([C@@H](O)CC(C)C)c(OC)c1C(=O)OC2 [Example C-91]
100 | COc1c([C@@H](O)CC(C)C)ccc2c1C(=O)OC(C)c1cc(C)cc(OC(=O)C3(C)C4CCC3CC4)c1O2 (some centres unmarked) [Example C-120]
55 | COc1c(C(O)CC(C)C)ccc2c1C(=O)OCc1c(F)c(C)c(C)c(OC(=O)C3(C)C4CCC3CC4)c1O2 (centres unmarked) [Example C-128]
